The series in a line: Lymphatic transport assay in mesenteric lymph-duct cannulated rats. The format is in vivo, rat. The note with it: total MPA related compound, intraduodenal infusion, anesthetised mesenteric lymph-duct cannulated rats; class symbols. As to the method: In order to assess the lymphatic transport of disclosed lipid prodrugs in rats, the mesenteric lymph ducts of the rats used in this study were cannulated to allow continual collection of mesenteric lymph. Lipid formulations containing the compound of interest were then administered to the animals, lymph was collected, and drug concentrations in the lymph samples were quantified.
Lipid-based formulations of the compounds of the invention or control compounds were prepared as previously described (Trevaskis, N. L. et al., Pharmaceutical Research, 2005, 22(11), 1863-1870, WO 2016/023082, and WO 2017/041139, hereby incorporated by reference.
In brief, either 1 or 2 mg of test prodrug, 40 mg oleic acid and 25 mg Tween 80 were mixed in a glass vial and incubated at 37° C. for 12-18 h to equilibrate. An aqueous phase consisting of 5.6 ml phosphate buffered saline (PBS, pH 7.4) was subsequently added to the lipid phase (MPA was dissolved in PBS for the preparation of MPA containing formulations) and the formulation emulsified by ultrasonication with a Misonix XL 2020 ultrasonic processor (Misonix, Farmingdale, NY, USA) equipped with a 3.2-mm microprobe tip running at 30% of the maximal amplitude of 240 μm and a frequency of 20 kHz for 2 min at room temperature. Doses for administering to more than one animal can be prepared in one batch by suitably increasing the quantities given above. Drug/prodrug concentrations in all formulations were verified using HPLC-MS.
Male Sprague-Dawley (SD) rats were selected for the lymphatic transport studies. Rats (typically 240-320 g) were maintained on a standard diet and fasted overnight with free access to water prior to experiments.
Anesthetized rats were placed on a heated pad at 37° C. and cannulas inserted into the duodenum (for formulation administration and rehydration), mesenteric lymph duct (for lymph collection), and carotid artery (in cases where blood collection was conducted). Post-surgery, rats were re-hydrated for 0.5 h via intraduodenal infusion of normal saline at 2.8 mL/h. The lipid formulations were infused into the duodenum at 2.8 mL/h for 2 h after which, normal saline was infused at 2.8 mL/h for the remainder of the experiment. Lymph was continuously collected for up to 8 h into pre-weighed Eppendorf tubes containing 10 μL of 1,000 IU/mL heparin. The collection tubes were changed hourly and lymph flow was measured gravimetrically. Aliquots of hourly lymph samples were stored at −20° C. prior to assay.
Drug concentration in lymph is expressed as total drug and includes free drug and drug associated with different glycerides. Lymph samples are first treated with a lipase or other appropriate conditions to liberate free active agent prior to measurement of active agent levels in the lymph. Treatment with a lipase or other hydrolysis conditions liberates free active agent from any corresponding re-esterified glycerides. Porcine pancreatic lipase is appropriate for this purpose. Alternatively, hydrolysis with 0.5 M NaOH may be used. For MPA “phenol” prodrugs (i.e. prodrugs linked to the triglyceride at the aromatic —OH group of MPA), hydrolysis was performed with 0.5 M NaOH except for the lymph samples collected from 3 rats in the group of compound I-20 (MPA-O-C12α′βMe-TG), which were hydrolyzed by porcine pancreatic lipase.
Transport of compounds into lymph during each hourly collection period was calculated from the product of the volume of lymph collected and the measured concentrations in lymph. For fluorescently-labelled compounds such as a BDP-conjugate, the concentrations of total compound may be measured by fluorescence spectroscopy without hydrolysis.
The results of the lymphatic transport assays are summarized in Table 2, below, and FIGS. 1-19. Table 2 summarizes lymphatic transport of total MPA related compound (% of administered dose) following intraduodenal infusion to anaesthetised, mesenteric lymph-duct cannulated rats. […]
For the molecule `CCCCCCCCCCCCCCCC(=O)OCC(COC(=O)CCCCCCCCCCCCCCC)OC(=O)CCCCCCOC(=O)CC/C(C)=C/Cc1c(O)c2c(c(C)c1OC)COC2=O` [I-36, (E)-2-((7-((6-(4-hydroxy-6-methoxy-7-methyl-3-oxo-1,3-dihydroisobenzofuran-5-yl)-4-methylhex-4-enoyl)oxy)heptanoyl)oxy)propane-1,3-diyl dipalmitate], the “Cumulative lymphatic transport % dose (Mean ± SD, or Range if n = 2)” value was “B (between 1% and 10% (1%-10%))”.

For `CCCCCCCCCCCCCCCC(=O)OCC(COC(=O)CCCCCCCCCCCCCCC)OCCCCOC(=O)CC/C(C)=C/Cc1c(O)c2c(c(C)c1OC)COC2=O` [I-25, (E)-2-(4-((6-(4-hydroxy-6-methoxy-7-methyl-3-oxo-1,3-dihydroisobenzofuran-5-yl)-4-methylhex-4-enoyl)oxy)butoxy)propane-1,3-diyl dipalmitate], the “Cumulative lymphatic transport % dose (Mean ± SD, or Range if n = 2)” value is “C (less than 1% and greater than 0.24% (<1% and >0.24%))”.

As to `CCCCCCCCCCCCCCCC(=O)OCC(COC(=O)CCCCCCCCCCCCCCC)OC(=O)CCCCCCCCCCCCCC(=O)Oc1c(C/C=C(\C)CCC(=O)OC)c(OC)c(C)c2c1C(=O)OC2` [I-57, (E)-1-(1,3-bis(palmitoyloxy)propan-2-yl) 15-(6-methoxy-5-(6-methoxy-3-methyl-6-oxohex-2-en-1-yl)-7-methyl-3-oxo-1,3-dihydroisobenzofuran-4-yl) pentadecanedioate], the “Cumulative lymphatic transport % dose (Mean ± SD, or Range if n = 2)” value is “A (greater than 10% (>10%))”.

For the molecule `CCCCCCCCCCCCCCCC(=O)OCC(COC(=O)CCCCCCCCCCCCCCC)OC(=O)CCC(=O)Oc1c(C/C=C(\C)CCC(=O)OC)c(OC)c(C)c2c1C(=O)OC2` [I-17], the “Cumulative lymphatic transport % dose (Mean ± SD, or Range if n = 2)” value is “C (less than 1% and greater than 0.24% (<1% and >0.24%))”.

Take `CCCCCCCCCCCCCCCC(=O)OCC(COC(=O)CCCCCCCCCCCCCCC)OC(=O)CCc1ccc(OC(=O)CC/C(C)=C/Cc2c(O)c3c(c(C)c2OC)COC3=O)cc1` [I-28, (E)-2-((3-(4-((6-(4-hydroxy-6-methoxy-7-methyl-3-oxo-1,3-dihydroisobenzofuran-5-yl)-4-methylhex-4-enoyl)oxy)phenyl)propanoyl)oxy)propane-1,3-diyl dipalmitate]: the “Cumulative lymphatic transport % dose (Mean ± SD, or Range if n = 2)” value is “B (between 1% and 10% (1%-10%))”.

`CCCCCCCCCCCCCCCC(=O)OCC(COC(=O)CCCCCCCCCCCCCCC)OCCCCCCOC(=O)CC/C(C)=C/Cc1c(O)c2c(c(C)c1OC)COC2=O` [I-26, (E)-2-((6-((6-(4-hydroxy-6-methoxy-7-methyl-3-oxo-1,3-dihydroisobenzofuran-5-yl)-4-methylhex-4-enoyl)oxy)hexyl)oxy)propane-1,3-diyl dipalmitate]: the “Cumulative lymphatic transport % dose (Mean ± SD, or Range if n = 2)” value is “C (less than 1% and greater than 0.24% (<1% and >0.24%))”.

As for `CCCCCCCCCCCCCCCC(=O)OCC(COC(=O)CCCCCCCCCCCCCCC)OC(=O)CCCCC(=O)Oc1c(C/C=C(\C)CCC(=O)OC)c(OC)c(C)c2c1C(=O)OC2` [I-18], the “Cumulative lymphatic transport % dose (Mean ± SD, or Range if n = 2)” value is “B (between 1% and 10% (1%-10%))”.

Consider `CCCCCCCCCCCCCCCC(=O)OCC(COC(=O)CCCCCCCCCCCCCCC)OC(=O)CC(C)CCCCCCCC(C)C(=O)Oc1c(C/C=C(\C)CCC(=O)OCCN2CCOCC2)c(OC)c(C)c2c1C(=O)OC2` (stereo not drawn) [I-32, (E)-12-(1,3-bis(palmitoyloxy)propan-2-yl) 1-(6-methoxy-7-methyl-5-(3-methyl-6-(2-morpholinoethoxy)-6-oxohex-2-en-1-yl)-3-oxo-1,3-dihydroisobenzofuran-4-yl) 2,10-dimethyldodecanedioate], for which the “Cumulative lymphatic transport % dose (Mean ± SD, or Range if n = 2)” value was “A (greater than 10% (>10%))”.

On to `CCCCCCCCCCCCCCCC(=O)OCC(COC(=O)CCCCCCCCCCCCCCC)OC(=O)CC(C)CCCCCCCC(C)C(=O)OC(C)Oc1c(C/C=C(\C)CCC(=O)OC)c(OC)c(C)c2c1C(=O)OC2` (stereo not drawn) [I-58, (E)-12-(1,3-bis(palmitoyloxy)propan-2-yl) 1-(1-((6-methoxy-5-(6-methoxy-3-methyl-6-oxohex-2-en-1-yl)-7-methyl-3-oxo-1,3-dihydroisobenzofuran-4-yl)oxy)ethyl) 2,10-dimethyldodecanedioate], for which the “Cumulative lymphatic transport % dose (Mean ± SD, or Range if n = 2)” value was “A (greater than 10% (>10%))”.
